Assay results as given in ChEMBL document CHEMBL1201862, “PubChem BioAssay data set” (2004).
The source made the active and inactive calls.

Experiments:
Format in all cases: functional
[1] = biological target: Cyclin-dependent kinase 5 (Homo sapiens, UniProt Q00535);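 also: CDK5 measured as one member of a kinase profiling panel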
[2] = biological target: Serine/threonine-protein kinase MRCK alpha (Homo sapiens, UniProt Q5VT25)
SRSF protein kinase 1 = SRSF protein kinase 1 (Homo sapiens, UniProt Q96SB4);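 also: measured as one member of a kinome-wide kinase profiling panel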
[3] = biological target: Interleukin-1 receptor-associated kinase 4 (Homo sapiens, UniProt Q9NWZ3)
Chain of Interleukin-1 receptor-associated kinase 4 (Q9NWZ3 whole entry): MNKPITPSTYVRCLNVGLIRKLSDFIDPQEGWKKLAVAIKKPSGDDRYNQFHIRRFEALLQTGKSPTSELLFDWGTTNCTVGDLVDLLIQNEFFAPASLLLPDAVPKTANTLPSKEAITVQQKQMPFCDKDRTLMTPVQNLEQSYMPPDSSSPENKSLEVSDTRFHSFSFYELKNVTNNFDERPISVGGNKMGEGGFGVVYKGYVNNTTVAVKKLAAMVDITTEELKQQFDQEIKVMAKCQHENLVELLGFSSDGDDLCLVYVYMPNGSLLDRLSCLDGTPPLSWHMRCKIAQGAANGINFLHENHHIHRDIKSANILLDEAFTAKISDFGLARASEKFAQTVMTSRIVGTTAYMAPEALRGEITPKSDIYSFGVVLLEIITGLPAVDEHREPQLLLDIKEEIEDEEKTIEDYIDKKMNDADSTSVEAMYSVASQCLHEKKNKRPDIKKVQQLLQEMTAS

[4] = biological target: Cyclin-dependent kinase 1 (Homo sapiens, UniProt P06493);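 also: Kinome-wide panel profiling, with the target listed as panel member CDC2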
[5] = biological target: Cell division cycle 7-related protein kinase (Homo sapiens, UniProt O00311);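 also: value obtained from a kinome-wide kinase panel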
[6] = biological target: Serine/threonine-protein kinase pim-1 (Homo sapiens, UniProt P11309)
[7] = biological target: T1, Glycogen synthase kinase-3 beta (Homo sapiens, UniProt P49841);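 also: value comes from a broad kinome profiling panel, with GSK3B as the panel member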
T1 sequence (P49841 whole entry): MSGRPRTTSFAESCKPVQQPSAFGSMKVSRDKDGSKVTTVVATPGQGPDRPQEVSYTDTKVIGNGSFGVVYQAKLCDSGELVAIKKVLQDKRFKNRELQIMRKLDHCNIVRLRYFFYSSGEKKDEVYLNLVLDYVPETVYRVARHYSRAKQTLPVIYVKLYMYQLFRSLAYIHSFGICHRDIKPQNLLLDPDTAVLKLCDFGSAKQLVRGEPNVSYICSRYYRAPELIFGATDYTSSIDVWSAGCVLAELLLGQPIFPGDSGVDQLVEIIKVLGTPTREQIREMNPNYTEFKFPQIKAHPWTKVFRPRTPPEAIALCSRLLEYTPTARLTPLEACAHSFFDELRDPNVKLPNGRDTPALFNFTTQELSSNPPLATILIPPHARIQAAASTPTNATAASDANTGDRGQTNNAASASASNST

[8] = biological target: Mitogen-activated protein kinase kinase kinase kinase 4 (Homo sapiens, UniProt O95819)
[9] = biological target: Dual specificity protein kinase CLK4 (Homo sapiens, UniProt Q9HAZ1)
Chain of Dual specificity protein kinase CLK4 (Q9HAZ1 whole entry): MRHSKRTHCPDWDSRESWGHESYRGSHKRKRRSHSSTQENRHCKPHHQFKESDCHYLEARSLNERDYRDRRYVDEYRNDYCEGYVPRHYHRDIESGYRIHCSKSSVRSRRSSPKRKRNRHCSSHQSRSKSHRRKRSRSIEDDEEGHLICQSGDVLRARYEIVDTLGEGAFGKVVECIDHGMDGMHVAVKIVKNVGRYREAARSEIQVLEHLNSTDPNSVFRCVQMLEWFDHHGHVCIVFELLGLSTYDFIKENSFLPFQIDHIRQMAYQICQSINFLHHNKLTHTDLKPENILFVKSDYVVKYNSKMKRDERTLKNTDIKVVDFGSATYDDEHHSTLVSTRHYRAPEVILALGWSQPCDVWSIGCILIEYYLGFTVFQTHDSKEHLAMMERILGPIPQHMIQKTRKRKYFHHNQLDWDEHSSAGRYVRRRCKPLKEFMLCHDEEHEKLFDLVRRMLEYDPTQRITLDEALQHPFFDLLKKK

[10] = biological target: Homeodomain-interacting protein kinase 2 (Homo sapiens, UniProt Q9H2X6);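 also: measured within a kinome-wide kinase profiling panel, HIPK2 being one panel member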
[11] = biological target: cAMP-dependent protein kinase catalytic subunit alpha (Homo sapiens, UniProt P17612)
[12] = biological target: Vascular endothelial growth factor receptor 2 (Homo sapiens, UniProt P35968)
Aurora kinase A = Aurora kinase A (Homo sapiens, UniProt O14965);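 also: value from the Navigating the Kinome kinase panel profiling, panel entry STK6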
Chain of Aurora kinase A (O14965 whole entry): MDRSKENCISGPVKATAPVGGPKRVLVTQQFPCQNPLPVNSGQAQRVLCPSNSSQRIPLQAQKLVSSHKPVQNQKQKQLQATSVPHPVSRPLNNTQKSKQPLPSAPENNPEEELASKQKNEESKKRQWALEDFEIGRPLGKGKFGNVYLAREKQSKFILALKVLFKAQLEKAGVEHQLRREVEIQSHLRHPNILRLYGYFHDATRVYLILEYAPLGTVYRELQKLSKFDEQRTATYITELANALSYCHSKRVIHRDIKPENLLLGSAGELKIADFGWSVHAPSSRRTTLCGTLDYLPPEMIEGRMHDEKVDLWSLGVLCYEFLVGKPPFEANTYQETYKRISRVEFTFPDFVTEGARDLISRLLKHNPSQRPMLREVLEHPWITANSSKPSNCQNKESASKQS

Aurora kinase B = Aurora kinase B (Homo sapiens, UniProt Q96GD4)
[13] = biological target: T2, Neuropeptides B/W receptor type 1 (Homo sapiens, UniProt P48145); test: human NPBW1 receptor blockade, IC50 – cell-based, fluorescence, dose response, set 6, late-stage follow-up (AID 588583)
T2 sequence (P48145 whole entry): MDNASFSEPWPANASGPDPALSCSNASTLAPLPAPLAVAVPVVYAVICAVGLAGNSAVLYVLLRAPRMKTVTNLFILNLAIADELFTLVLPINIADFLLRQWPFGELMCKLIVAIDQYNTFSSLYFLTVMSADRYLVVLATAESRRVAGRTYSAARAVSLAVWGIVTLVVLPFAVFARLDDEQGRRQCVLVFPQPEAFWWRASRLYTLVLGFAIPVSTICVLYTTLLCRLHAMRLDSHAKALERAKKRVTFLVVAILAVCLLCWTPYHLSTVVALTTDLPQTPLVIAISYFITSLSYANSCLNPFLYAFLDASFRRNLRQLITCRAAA

[14] = biological target: Melanin-concentrating hormone receptor 1 (Homo sapiens, UniProt Q99705); test: Late-stage fluorescence-based counterscreen for antagonists of the G-protein coupled receptor 7 (GPR7): cell-based dose response assay to identify antagonists of the melanin-concentrating hormone receptor 1 (MCHR1) Set 6.
Chain of Melanin-concentrating hormone receptor 1 (Q99705 whole entry): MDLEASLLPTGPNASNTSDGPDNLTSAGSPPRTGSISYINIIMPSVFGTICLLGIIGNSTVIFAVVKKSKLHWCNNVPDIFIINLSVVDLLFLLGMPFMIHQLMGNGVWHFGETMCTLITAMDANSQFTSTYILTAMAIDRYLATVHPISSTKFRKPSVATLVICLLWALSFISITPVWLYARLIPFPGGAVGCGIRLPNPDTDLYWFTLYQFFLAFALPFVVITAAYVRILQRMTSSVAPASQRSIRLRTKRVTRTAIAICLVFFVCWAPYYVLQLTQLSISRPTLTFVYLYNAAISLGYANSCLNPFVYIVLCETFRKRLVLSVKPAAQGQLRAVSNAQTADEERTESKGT

[15] = biological target: Cyclin-dependent kinase 5/CDK5 activator 1 (Homo sapiens, UniProt Q00535); test: inhibitors of human CDK5 activity – biochemical, microfluidic mobility shift, dry powder, set 2, selectivity assay for GSK3beta inhibitor project, dose response (AID 623979)
Chain of Cyclin-dependent kinase 5/CDK5 activator 1 (Q00535 whole entry): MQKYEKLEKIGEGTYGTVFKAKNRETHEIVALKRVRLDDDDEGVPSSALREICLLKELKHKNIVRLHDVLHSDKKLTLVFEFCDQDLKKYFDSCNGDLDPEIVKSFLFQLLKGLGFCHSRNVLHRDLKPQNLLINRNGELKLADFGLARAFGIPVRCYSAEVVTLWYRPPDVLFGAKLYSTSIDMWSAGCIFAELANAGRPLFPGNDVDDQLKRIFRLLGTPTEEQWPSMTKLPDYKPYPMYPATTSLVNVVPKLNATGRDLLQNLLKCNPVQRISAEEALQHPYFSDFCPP
Chain of Cyclin-dependent kinase 5/CDK5 activator 1 (Q15078 whole entry, further chain): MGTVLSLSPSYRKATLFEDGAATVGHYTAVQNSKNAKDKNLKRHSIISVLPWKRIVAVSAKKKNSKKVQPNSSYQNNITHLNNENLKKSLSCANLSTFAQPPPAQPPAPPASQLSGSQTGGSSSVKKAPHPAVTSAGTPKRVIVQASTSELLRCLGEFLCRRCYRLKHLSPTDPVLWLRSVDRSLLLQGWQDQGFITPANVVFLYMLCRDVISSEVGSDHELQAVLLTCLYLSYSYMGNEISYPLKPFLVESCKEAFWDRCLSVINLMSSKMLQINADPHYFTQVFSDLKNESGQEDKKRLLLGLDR

[16] = biological target: DNA dC->dU-editing enzyme APOBEC-3A (Homo sapiens, UniProt P31941); test: A3A deaminase inhibition for selectivity – biochemical, dose response (AID 504722)
Chain of DNA dC->dU-editing enzyme APOBEC-3A (P31941 whole entry): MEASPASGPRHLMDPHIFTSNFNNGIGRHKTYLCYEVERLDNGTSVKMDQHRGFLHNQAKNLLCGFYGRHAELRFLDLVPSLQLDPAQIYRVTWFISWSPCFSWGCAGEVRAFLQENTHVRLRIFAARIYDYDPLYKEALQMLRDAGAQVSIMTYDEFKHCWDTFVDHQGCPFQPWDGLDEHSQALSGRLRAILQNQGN

[17] = biological target: T1, Glycogen synthase kinase-3 beta; test: inhibition of human GSK3B activity – biochemical, microfluidics, dry powder samples, set 2, dose response (AID 623989)
[18] = biological target: DNA dC->dU-editing enzyme APOBEC-3G (Homo sapiens, UniProt Q9HC16); test: Dose Response confirmation of small molecule APOBEC3G DNA Deaminase Inhibitors via a fluorescence-based single-stranded DNA deaminase assay. [Related pubchem assays (depositor defined):AID493012, AID493028]
[19] = biological target: Glycogen synthase kinase-3 alpha (Homo sapiens, UniProt P49840); test: GSK3A enzyme blockers, homolog specificity check – biochemical, microfluidics, dry powder samples, set 2, selectivity assay for GSK3beta inhibitor project, dose response (AID 623978)

Chain of Cyclin-dependent kinase 5 (Q00535 whole entry): as the sequence (Q00535 whole entry) above
Chain of Serine/threonine-protein kinase MRCK alpha (Q5VT25 whole entry): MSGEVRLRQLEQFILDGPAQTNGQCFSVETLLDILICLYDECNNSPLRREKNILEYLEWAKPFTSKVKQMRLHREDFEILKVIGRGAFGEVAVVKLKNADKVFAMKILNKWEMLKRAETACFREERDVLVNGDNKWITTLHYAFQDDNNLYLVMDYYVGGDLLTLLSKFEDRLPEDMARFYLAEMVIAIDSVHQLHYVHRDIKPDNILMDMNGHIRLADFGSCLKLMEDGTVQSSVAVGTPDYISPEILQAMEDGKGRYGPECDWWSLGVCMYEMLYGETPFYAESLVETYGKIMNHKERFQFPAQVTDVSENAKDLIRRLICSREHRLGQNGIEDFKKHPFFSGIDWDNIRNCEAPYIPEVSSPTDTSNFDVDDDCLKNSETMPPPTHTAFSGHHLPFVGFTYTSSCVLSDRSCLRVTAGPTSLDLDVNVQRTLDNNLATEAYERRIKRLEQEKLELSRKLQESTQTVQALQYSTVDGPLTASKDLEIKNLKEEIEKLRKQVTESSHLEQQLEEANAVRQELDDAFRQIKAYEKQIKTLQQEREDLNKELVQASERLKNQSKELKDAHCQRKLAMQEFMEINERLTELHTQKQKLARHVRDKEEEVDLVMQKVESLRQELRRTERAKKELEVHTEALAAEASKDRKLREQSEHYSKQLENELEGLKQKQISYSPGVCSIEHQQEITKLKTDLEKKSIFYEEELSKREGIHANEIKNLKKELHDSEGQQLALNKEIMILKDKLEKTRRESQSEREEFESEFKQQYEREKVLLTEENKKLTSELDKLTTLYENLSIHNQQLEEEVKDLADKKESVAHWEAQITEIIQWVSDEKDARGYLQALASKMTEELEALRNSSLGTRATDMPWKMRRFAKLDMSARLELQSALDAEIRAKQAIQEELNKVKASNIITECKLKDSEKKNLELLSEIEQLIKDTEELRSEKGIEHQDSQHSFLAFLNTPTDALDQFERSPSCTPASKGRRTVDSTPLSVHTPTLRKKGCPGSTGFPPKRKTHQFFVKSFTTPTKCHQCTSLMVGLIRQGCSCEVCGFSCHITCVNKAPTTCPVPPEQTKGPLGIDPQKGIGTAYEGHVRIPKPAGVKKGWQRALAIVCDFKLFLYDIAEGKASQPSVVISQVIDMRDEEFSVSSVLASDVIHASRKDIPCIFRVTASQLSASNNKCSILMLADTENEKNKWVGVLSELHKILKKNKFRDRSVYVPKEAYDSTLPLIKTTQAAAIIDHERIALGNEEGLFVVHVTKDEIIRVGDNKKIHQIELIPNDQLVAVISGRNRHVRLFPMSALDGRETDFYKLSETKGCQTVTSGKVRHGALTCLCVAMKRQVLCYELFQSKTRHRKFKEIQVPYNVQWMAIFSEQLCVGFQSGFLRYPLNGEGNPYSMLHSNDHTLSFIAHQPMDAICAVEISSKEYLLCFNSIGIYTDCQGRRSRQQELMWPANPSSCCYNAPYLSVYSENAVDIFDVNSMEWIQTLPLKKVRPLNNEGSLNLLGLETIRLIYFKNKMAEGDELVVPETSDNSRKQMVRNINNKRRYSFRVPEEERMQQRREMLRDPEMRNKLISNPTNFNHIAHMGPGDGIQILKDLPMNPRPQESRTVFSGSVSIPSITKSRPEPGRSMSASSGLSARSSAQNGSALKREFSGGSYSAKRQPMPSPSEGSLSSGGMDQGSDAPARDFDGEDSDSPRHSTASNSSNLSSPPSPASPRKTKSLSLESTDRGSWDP

CN(c1ccccc1-c1ccc2c(c1)Nc1ccccc1NC2=O)S(C)(=O)=O
active: Ki [1] 5.01 µM | Ki [2] 6.31 µM | Ki (SRSF protein kinase 1) 5.01 µM | Ki [3] 2.51 µM | Ki [4] 3.98 µM

CNCCOc1cncc(-c2ccc3[nH]nc(C)c3c2)c1
active: Ki [5] 0.0316 µM | Ki [6] 0.794 µM | Ki [7] 2.51 µM | Ki [8] 0.0794 µM | Ki [9] 0.01 µM | Ki [10] 2 µM | Ki [11] 0.794 µM
inactive: Ki [3] > 10 µM

CC1(C)CC(C=Cc2ccc(Cl)cc2)=Cc2c1sc1ncnc(N)c21
active: Ki [12] 0.126 µM | Ki (Aurora kinase A) 0.1 µM | Ki (Aurora kinase B) 0.2 µM

N#CC(c1cc(F)ccc1F)c1c(Cl)cnn(Cc2cccc3ccccc23)c1=O (stereo not drawn)
active: IC50 [13] 0.255 µM | IC50 [14] 0.255 µM

Cc1ccc(-c2nnc(S)n2/N=C/c2ccncc2)cc1
inactive: IC50 [16] > 100 µM
active: AC50 [15] 19.3 µM | AC50 [17] 1.48 µM | IC50 [18] 2.48 µM | AC50 [19] 7.71 µM
